# From patent US10808018B2, “Erythropoietin-derived peptides and methods of protecting cells from oxidative damage induced by reactive oxygen species” (SYLUS CO., LTD., priority 2017, dated 2020)
# Peptide text beside a SMILES is read from it.
# Test system: PC12 cells
# Assay: Cell proliferation side effect, MTS assay
# Assay type: cell-based
# Settings: peptide 1 pM to 0.5 nM, 48 hours, FIG. 4
# Procedure: Side effects such as cell proliferation were determined for the three peptides (ML1-L2, ML1-K2, and ML1-R2) prepared in Example 4.
# In detail, to determine cell proliferation degree, an MTS assay (CellTiter 96 Aqueous One Solution Cell Proliferation Assay, Promega, Madison, Wis., USA) was performed. […] The initial number of cells (0 hour) and the number of cells after 48 hours were counted. Intracellular soluble formazan produced by cell reduction was determined by recording absorbance of each 96-well plate at a wavelength of 490 nm using a VERSA MAX.
row,SMILES,cell proliferation rate (side effect)
1,CC(C)C[C@H](NC(=O)CNC(=O)[C@H](CO)NC(=O)[C@@H](NC(=O)[C@H](C)NC(=O)[C@H](CCCCN)NC(=O)[C@H](CC(=O)O)NC(=O)[C@@H](NC(=O)[C@H](Cc1c[nH]cn1)NC(=O)[C@@H](N)CCCCN)C(C)C)C(C)C)C(=O)N[C@@H](CCCNC(=N)N)C(=O)N[C@@H](CO)C(=O)N[C@@H](CC(C)C)C(=O)N[C@H](C(=O)N[C@H](C(=O)N[C@@H](CCCCN)C(=O)O)[C@@H](C)O)[C@@H](C)O [ML1-K2] (H-KHVDKAVSGLRSLTTK-OH),no side effect of cell proliferation
2,CC(C)C[C@H](NC(=O)[C@@H](NC(=O)[C@@H](NC(=O)[C@H](CC(C)C)NC(=O)[C@H](CO)NC(=O)[C@H](CCCNC(=N)N)NC(=O)[C@H](CC(C)C)NC(=O)CNC(=O)[C@H](CO)NC(=O)[C@@H](NC(=O)[C@H](C)NC(=O)[C@H](CCCCN)NC(=O)[C@H](CC(=O)O)NC(=O)[C@@H](NC(=O)[C@H](Cc1c[nH]cn1)NC(=O)[C@@H](N)CC(C)C)C(C)C)C(C)C)[C@@H](C)O)[C@@H](C)O)C(=O)O [ML1-L2] (H-LHVDKAVSGLRSLTTL-OH),no side effect of cell proliferation
3,CC(C)C[C@H](NC(=O)CNC(=O)[C@H](CO)NC(=O)[C@@H](NC(=O)[C@H](C)NC(=O)[C@H](CCCCN)NC(=O)[C@H](CC(=O)O)NC(=O)[C@@H](NC(=O)[C@H](Cc1c[nH]cn1)NC(=O)[C@@H](N)CCCNC(=N)N)C(C)C)C(C)C)C(=O)N[C@@H](CCCNC(=N)N)C(=O)N[C@@H](CO)C(=O)N[C@@H](CC(C)C)C(=O)N[C@H](C(=O)N[C@H](C(=O)N[C@@H](CCCNC(=N)N)C(=O)O)[C@@H](C)O)[C@@H](C)O [ML1-R2] (H-RHVDKAVSGLRSLTTR-OH),no side effect of cell proliferation
